Measured values: patent US20260158011A1 (Achieve Life Sciences, Inc., priority 2023, published 2026)

Tested on: adult e-cigarette users
Conditions: 12 Weeks, N = 106, Safety Set
Description: A second measurement consisted of biochemically verified continuous vaping abstinence at any time during treatment, with vaping abstinence at Week 3-6 or Week 6-9 for of cytisinicline treatment vs placebo. 7-day point prevalence rates were compared for vaping abstinence (Week 2 to 12) (FIG. 62). An additional measurement included reduction in daily vaping as measured by cotinine, where cytisinicline treatment vs placebo for a reduction in nicotine vaping using weekly quantitative cotinine levels from Week 2 to Week 12. Safety was assessed by adverse effects and serious adverse effects, considering number, severity, and attribution to study drug.

O=c1cccc2n1C[C@@H]1CNC[C@H]2C1 [cytisine, (−)-Cytisine]
(1.9) %: TEAE Bronchitis, subjects % | TEAE Constipation, subjects % | TEAE Dry mouth, subjects % | TEAE Gastroenteritis, subjects %
(5.7) %: TEAE Fatigue, subjects %
(2.8) %: TEAE Dizziness, subjects % | TEAE Irritability, subjects %
(10.4) %: TEAE Insomnia, subjects %
0 n (%): TEAE Agitation, subjects | TEAE Alanine aminotransferase increased, subjects | TEAE Alveolar osteitis, subjects | TEAE Aspartate aminotransferase increased, subjects | TEAE Concussion, subjects | TEAE Depressed mood, subjects | TEAE Depression, subjects | TEAE Ear infection, subjects | TEAE Gastroenteritis norovirus, subjects | TEAE Gastroenteritis viral, subjects | TEAE Hyperhidrosis, subjects | TEAE Leading to Dose Reduction, Dose Interrupted or Study Drug Discontinuation: Depression | TEAE Leading to Dose Reduction, Dose Interrupted or Study Drug Discontinuation: Headache | TEAE Leading to Dose Reduction, Dose Interrupted or Study Drug Discontinuation: Nausea | TEAE Leading to Dose Reduction, Dose Interrupted or Study Drug Discontinuation: Pregnancy
(9.4) %: TEAE Anxiety, subjects %
101 Events: TEAE Action Taken With Study Drug: Dose Not Changed, Events
5 (4.7) n (%): TEAE Action Taken With Study Drug: Not Applicable, subjects
0 n (%)/Events: At Least One Related Serious TEAE | At Least One Serious TEAE
11 n: TEAE Insomnia, subjects n
2 n: TEAE Bronchitis, subjects n | TEAE Constipation, subjects n | TEAE Dry mouth, subjects n | TEAE Gastroenteritis, subjects n
13 n: TEAE Abnormal dreams, subjects n
1 n: TEAE Abdominal discomfort, subjects n | TEAE Akathisia, subjects n | TEAE Anal fissure, subjects n | TEAE Animal bite, subjects n | TEAE Attention deficit hyperactivity disorder, subjects n | TEAE Back pain, subjects n | TEAE Chlamydial infection, subjects n | TEAE Decreased appetite, subjects n | TEAE Dermatitis contact, subjects n | TEAE Disturbance in attention, subjects n | TEAE Dyspepsia, subjects n | TEAE Eye pruritus, subjects n | TEAE Female sterilisation, subjects n | TEAE Gout, subjects n | TEAE Hot flush, subjects n | TEAE Increased appetite, subjects n | TEAE Menorrhagia, subjects n
51 (48.1) n (%): TEAE Action Taken With Study Drug: Dose Not Changed, subjects
7 n: TEAE Headache, subjects n
4 (3.8) n (%): TEAE Action Taken With Study Drug: Drug Withdrawn, subjects
6 n: TEAE Fatigue, subjects n
2 (1.9) n (%): TEAE Leading to Dose Reduction, Dose Interrupted or Study Drug Discontinuation: Anxiety | TEAE Leading to Dose Reduction, Dose Interrupted or Study Drug Discontinuation: Insomnia | TEAE Leading to Dose Reduction, Dose Interrupted or Study Drug Discontinuation: Panic attack
7 Events: TEAE Action Taken With Study Drug: Drug Withdrawn, Events | TEAE Action Taken With Study Drug: Not Applicable, Events
56 (52.8) n (%): At Least One AE, subjects
123 Events: At Least One AE, Events
3 n: TEAE Dizziness, subjects n | TEAE Irritability, subjects n
(6.6) %: TEAE Headache, subjects %
3 Events: TEAE Action Taken With Study Drug: Dose Reduced, Events
10 n: TEAE Anxiety, subjects n
7 (6.6) n (%): At Least One TEAE Leading to Dose Reduction, Dose Interrupted or Study Drug Discontinuation
(0.9) %: TEAE Abdominal discomfort, subjects % | TEAE Akathisia, subjects % | TEAE Anal fissure, subjects % | TEAE Animal bite, subjects % | TEAE Attention deficit hyperactivity disorder, subjects % | TEAE Back pain, subjects % | TEAE Chlamydial infection, subjects % | TEAE Decreased appetite, subjects % | TEAE Dermatitis contact, subjects % | TEAE Disturbance in attention, subjects % | TEAE Dyspepsia, subjects % | TEAE Eye pruritus, subjects % | TEAE Female sterilisation, subjects % | TEAE Gout, subjects % | TEAE Hot flush, subjects % | TEAE Increased appetite, subjects % | TEAE Menorrhagia, subjects % | TEAE Migraine, subjects %
1 (0.9) n (%): TEAE Action Taken With Study Drug: Dose Interrupted, subjects | TEAE Leading to Dose Reduction, Dose Interrupted or Study Drug Discontinuation: Abdominal discomfort | TEAE Leading to Dose Reduction, Dose Interrupted or Study Drug Discontinuation: Abnormal dreams | TEAE Leading to Dose Reduction, Dose Interrupted or Study Drug Discontinuation: Anal fissure | TEAE Leading to Dose Reduction, Dose Interrupted or Study Drug Discontinuation: Fatigue | TEAE Leading to Dose Reduction, Dose Interrupted or Study Drug Discontinuation: Irritability
3 (2.8) n (%): Subjects with Dose Reduction | TEAE Action Taken With Study Drug: Dose Reduced, subjects
1 Events: TEAE Action Taken With Study Drug: Dose Interrupted, Events
(12.3) %: TEAE Abnormal dreams, subjects %
